This note sets out measurements from patent publication US8715638B2, “Ethenyl-substituted pyridine and pyrimidine derivatives and their use in treating viral infections” (Merck Sharp & Dohme Corp., priority 2008, dated 2014).

By EC90 is commonly meant the point of the concentration-response curve where the effect stands at 90%. Read a low EC90 as an effect from little substance.

Some results are limits rather than exact numbers.

The test system of this assay is HCV replicon cells. Description: Cell-based HCV Replicon Assay. Particulars: Hepatitis C virus, 72 h; HCV replicon RNA level by real time PCR (Taqman), cells harvested on day 3; EC90 = concentration to achieve ΔCT=3.2 over baseline. Here is the method:
Assays Cell-based HCV Replicon Assay
To measure cell-based anti-HCV activity of the compounds of the present invention, replicon cells were seeded at 5000 cells/well in 96-well collagen I-coated Nunc plates in the presence of the compound of the invention. […] The final concentration of DMSO was 0.5%, fetal bovine serum was 10%, in the assay media. […] The replicon RNA level was measured using real time PCR (Taqman assay). The amplicon was located in 5B. […] GAPDH RNA was used as endogenous control and was amplified in the same reaction as NS5B (multiplex PCR) using primers and VIC-labeled probe recommended by the manufacturer (PE Applied Biosystem). The real-time RT-PCR reactions were run on ABI PRISM 7900HT Sequence Detection System using the following program: 48° C. for 30 min, 95° C. for 10 min, 40 cycles of 95° C. for 15 sec, 60° C. for 1 min. The ΔCT values (CT5B-CTGAPDH) were plotted against the concentration of test compound and fitted to the sigmoid dose-response model using GraphPad PRISM software. EC50 was defined as the concentration of inhibitor necessary to achieve ΔCT=1 over the projected baseline; EC90 the concentration necessary to achieve ΔCT=3.2 over the baseline. Alternatively, to quantitate the absolute amount of replicon RNA, a standard curve was established by including serially diluted T7 transcripts of replicon RNA in the Taqman assay. All Taqman reagents were from PE Applied Biosystems. Such an assay procedure was described in detail in e.g. Malcolm et al., Antimicrobial Agents and Chemotherapy 50: 1013-1020 (2006).
Background: A replicon is a self-replicating genome or part of one, used to study replication in cells.
Consider `Nc1nc(Cl)c(/C=C/c2cc(F)cc(F)c2)c(N[C@@H]2C[C@H](CO)[C@@H](O)[C@H]2O)n1` [compound 4], for which the concentration for an effect of 90% (EC90) was no more than 5 µM.
`Nc1nc(Cl)c(/C=C/c2ccc(F)c(F)c2)c(N[C@@H]2C[C@H](CO)[C@@H](O)[C@H]2O)n1` [compound 6] came in with an EC90 of no more than 5 µM.
On to `Nc1nc(Cl)c(/C=C/c2cccc(F)c2F)c(N[C@@H]2C[C@H](CO)[C@@H](O)[C@H]2O)n1` [compound 9], for which the EC90 was no more than 5 µM.
The value for `Nc1nc(Cl)c(/C=C/c2cccc(Oc3ccccc3)c2)c(N[C@@H]2C[C@H](CO)[C@@H](O)[C@H]2O)n1` [compound 10] was no more than 5 µM; that for `Cc1ccccc1/C=C/c1c(Cl)nc(N)nc1N[C@@H]1C[C@H](CO)[C@@H](O)[C@H]1O` [compound 13] was greater than 5 µM.
The compound `Nc1nc(Cl)c(/C=C/c2ccccc2F)c(N[C@@H]2C[C@H](CO)[C@@H](O)C2)n1` [compound 15] came in with an EC90 greater than 5 µM.
Consider `CSc1nc(N)nc(N[C@@H]2C[C@H](CO)[C@@H](O)[C@H]2O)c1/C=C/c1ccccc1` [compound 16], for which the EC90 is greater than 5 µM.
With `Nc1nc(Cl)c(/C=C/c2ccccc2Cl)c(N[C@H]2C=C[C@@H](CO)C2)n1` [compound 17], the EC90 was greater than 5 µM.
